Measurements as given in PubChem BioAssay (NCI).
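Assay format: 96-well plates, 48-hour exposure. At the GI50, growth is halved. At the TGI there is no net growth.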

Experiments:
Test in all cases: NCI-60 cell line screen, 48 h
[1] = tested on: 786-0 renal
[2] = tested on: A498 renal
[3] = tested on: A549 NSCLC
[4] = tested on: ACHN renal
[5] = tested on: BT-549 breast
[6] = tested on: CAKI-1 renal
[7] = tested on: CCRF-CEM leukemia
[8] = tested on: COLO 205 colon
[9] = tested on: DU-145 prostate
[10] = tested on: EKVX NSCLC
[11] = tested on: HCC-2998 colon
[12] = tested on: HCT-116 colon
[13] = tested on: HCT-15 colon
[14] = tested on: HL-60(TB) leukemia
[15] = tested on: HOP-62 NSCLC
[16] = tested on: HOP-92 NSCLC
[17] = tested on: HS 578T breast
[18] = tested on: HT29 colon
[19] = tested on: IGROV1 ovarian
[20] = tested on: K-562 leukemia
[21] = tested on: KM12 colon
[22] = tested on: LOX IMVI melanoma
[23] = tested on: M14 melanoma
[24] = tested on: MALME-3M melanoma
[25] = tested on: MCF7 breast
[26] = tested on: MDA-MB-231 breast
[27] = tested on: MDA-MB-435
[28] = tested on: MOLT-4 leukemia
[29] = tested on: NCI-H226 lung
[30] = tested on: NCI-H23 lung
[31] = tested on: NCI-H460 lung
[32] = tested on: NCI-H522 lung
[33] = tested on: NCI/ADR-RES ovarian
[34] = tested on: OVCAR-3 ovarian
[35] = tested on: OVCAR-4 ovarian
[36] = tested on: OVCAR-5 ovarian
[37] = tested on: OVCAR-8 ovarian
[38] = tested on: PC-3 prostate
[39] = tested on: RPMI-8226 leukemia
[40] = tested on: RXF 393 renal
[41] = tested on: SF-268 CNS
[42] = tested on: SF-295 CNS
[43] = tested on: SF-539 CNS
[44] = tested on: SK-MEL-2 melanoma
[45] = tested on: SK-MEL-28 melanoma
[46] = tested on: SK-MEL-5 melanoma
[47] = tested on: SK-OV-3 ovarian
[48] = tested on: SN12C renal
[49] = tested on: SNB-19 CNS
[50] = tested on: SNB-75 CNS
[51] = tested on: SR leukemia
[52] = tested on: SW-620 colon
[53] = tested on: T-47D breast
[54] = tested on: TK-10 renal
[55] = tested on: U251 CNS
[56] = tested on: UACC-257 melanoma
[57] = tested on: UACC-62 melanoma
[58] = tested on: UO-31 renal

For `COc1ccc(/C=C\c2cc(OC)c(OC)c(OC)c2)cc1OC(=O)c1cccc(Cn2cc(CCOC(=O)c3cccc(Cn4nnc5c4C(=O)c4ccccc4C5=O)c3)nn2)c1`, the GI50 [1] was 0.101 µM, the TGI [1] was 17.5 µM and the GI50 [2] was < 0.01 µM. The GI50 [3] was 0.0392 µM, the TGI [3] was > 37.9 µM and the GI50 [4] was 0.0153 µM. The TGI [4] was > 84.5 µM, the GI50 [5] was < 0.01 µM and the TGI [5] was 1.35 µM. For the same compound, the GI50 [6] was 0.0459 µM, the TGI [6] was 20.1 µM and the GI50 [7] was < 0.01 µM. The TGI [7] was > 100 µM, the GI50 [8] was 0.344 µM and the GI50 [9] was < 0.01 µM. The GI50 [10] was 0.062 µM, the TGI [10] was > 100 µM and the GI50 [11] was 0.0362 µM. For the same compound, the TGI [11] was > 47.8 µM, the GI50 [12] was < 0.01 µM and the TGI [12] was > 33.2 µM. The GI50 [13] was < 0.01 µM, the TGI [13] was > 100 µM and the GI50 [14] was < 0.01 µM. For the same compound, the TGI [14] was 0.0125 µM, the GI50 [15] was 0.0381 µM and the TGI [15] was 27 µM. For the same compound, the GI50 [16] was 0.464 µM, the TGI [16] was 33.7 µM and the GI50 [17] was < 0.01 µM. For the same compound, the TGI [17] was 21.4 µM, the GI50 [18] was 0.321 µM and the GI50 [19] was 0.0252 µM. For the same compound, the TGI [19] was 26.4 µM, the GI50 [20] was < 0.01 µM and the TGI [20] was > 100 µM. The GI50 [21] was < 0.0133 µM, the TGI [21] was > 77.6 µM and the GI50 [22] was 0.0149 µM. For the same compound, the TGI [22] was > 100 µM, the GI50 [23] was < 0.01 µM and the TGI [23] was 10.9 µM. For the same compound, the GI50 [24] was 0.178 µM, the TGI [24] was > 71.3 µM and the GI50 [25] was 0.0216 µM. For the same compound, the TGI [25] was > 70.5 µM, the GI50 [26] was < 0.01 µM and the TGI [26] was 16.3 µM. For the same compound, the GI50 [27] was < 0.01 µM, the GI50 [28] was 0.0129 µM and the TGI [28] was > 100 µM. The GI50 [29] was 0.15 µM, the TGI [29] was > 37.1 µM and the GI50 [30] was < 0.01 µM. For the same compound, the TGI [30] was 18.3 µM, the GI50 [31] was < 0.01 µM and the TGI [31] was 12.6 µM. The GI50 [32] was 0.0102 µM, the GI50 [33] was < 0.01 µM and the TGI [33] was 0.421 µM. For the same compound, the GI50 [34] was < 0.01 µM, the GI50 [35] was 0.0403 µM and the TGI [35] was > 100 µM. For the same compound, the GI50 [36] was 0.0542 µM, the TGI [36] was > 100 µM and the GI50 [37] was < 0.01 µM. The TGI [37] was > 44.8 µM, the GI50 [38] was < 0.01 µM and the TGI [38] was > 100 µM. The GI50 [39] was < 0.01 µM, the TGI [39] was > 100 µM and the GI50 [40] was < 0.01 µM. The TGI [40] was 13.6 µM, the GI50 [41] was 0.0395 µM and the TGI [41] was 35 µM. The GI50 [42] was 0.0316 µM, the TGI [42] was 4.36 µM and the GI50 [43] was < 0.01 µM. For the same compound, the TGI [43] was 0.134 µM, the TGI [44] was 33.1 µM and the GI50 [45] was 11.7 µM. For the same compound, the TGI [45] was > 75.7 µM, the GI50 [46] was < 0.01 µM and the TGI [46] was 0.0474 µM. The GI50 [47] was 2.73 µM, the TGI [47] was 46.7 µM and the GI50 [48] was < 0.0173 µM. For the same compound, the TGI [48] was > 100 µM, the TGI [49] was 30.6 µM and the GI50 [50] was < 0.01 µM. The TGI [50] was 22.1 µM, the GI50 [51] was < 0.01 µM and the TGI [51] was > 100 µM. For the same compound, the GI50 [52] was < 0.01 µM, the TGI [52] was > 100 µM and the GI50 [53] was 51.6 µM. The TGI [53] was > 100 µM, the GI50 [54] was 9.58 µM and the TGI [54] was 33.5 µM. For the same compound, the GI50 [55] was < 0.01 µM, the TGI [55] was > 100 µM and the GI50 [56] was 22.9 µM. The TGI [56] was > 100 µM, the TGI [57] was 24.8 µM and the GI50 [58] was 0.16 µM. For the same compound, the TGI [58] was 79.5 µM.
